Results as given in patent publication US20250099467A1, “COMBINATION THERAPY FOR TREATING ABNORMAL CELL GROWTH” (Verastem, Inc., priority 2022, published 2025).

How the values were obtained:
Format in all cases: cell-based, human
[1] = test system: NSCLC KRAS mutant cell lines; experiment: 3D proliferation assay with synergy analysis, NSCLC panel; conditions: VS-6766 combined with ZN-C3 (WEE1); panel of 9 NSCLC KRAS mutant cell lines; 3D Matrigel, 7 days, CellTiter-Glo; FIG. 1, 2
Procedure: (§1) As examples, human cancer cell lines including non-small cell lung cancer (NSCLC), colorectal cancer (CRC), ovarian cancer and endometrial cancer were grown in 3D conditions. Briefly, 96-well plates were coated with 50 μL of Matrigel (100%) and incubated at 37° C. and 5% CO2 for 30 min in order for the Matrigel to solidify. Cells were seeded in 100 μL of 2% Matrigel containing medium. After an overnight incubation (17-22 hours), cells were treated with VS-6766 (RAF/MEK clamp)+/−DDR pathway inhibitor (e.g., DDR pathway inhibitor that targets WEE1, e.g., ZN-C3) for 7 days. VS-6766 was used at 1:5 dilutions starting at 5 μM and ZN-C3 was used at 1:3 dilutions starting at 5 μM. Cell viability was measured using the cell viability CellTiter-Glo assay.
(§2) Raw data and metadata files were processed with a custom R-script for single agent and combination activity. Bliss, Loewe, Highest Single Agent (HSA) and ZIP synergy analysis were performed to generate a composite synergy score. Summary graphics and reports were saved for visualization and further analysis.

[2] = test system: CRC KRAS mutant cell lines; experiment: 3D proliferation assay with synergy analysis, CRC panel; conditions: VS-6766 combined with ZN-C3 (WEE1); panel of 9 CRC KRAS mt cell lines; 3D Matrigel, 7 days, CellTiter-Glo; FIG. 1, 2
Procedure: as §1, §2

[3] = test system: ovarian cancer cell lines; experiment: 3D proliferation assay with synergy analysis, ovarian panel; conditions: VS-6766 combined with ZN-C3 (WEE1); panel of 12 ovarian cancer cell lines; 3D Matrigel, 7 days, CellTiter-Glo; FIG. 3, 4
Procedure: as §1, §2

[4] = test system: endometrial cancer cell lines; experiment: 3D proliferation assay with synergy analysis, endometrial panel; conditions: VS-6766 combined with ZN-C3 (WEE1); panel of 6 endometrial cancer cell lines; 3D Matrigel, 7 days, CellTiter-Glo; FIG. 3, 4
Procedure: as §1, §2

Measured: synergy with ZN-C3 in reducing cell viability (composite of Bliss, Loewe, HSA and ZIP)

CNS(=O)(=O)Nc1nccc(Cc2c(C)c3ccc(Oc4ncccn4)cc3oc2=O)c1F [VS-6766]
synergistic: all assays above
